Reference: the NIST ThermoML archive (doi:10.1016/j.fluid.2006.12.016)
Numbers after ± are expanded uncertainties.

Details: 101.33 kPa, Liquid

CCCCn1cc[n+](C)c1.F[B-](F)(F)F [1-butyl-3-methylimidazolium tetrafluoroborate]
Details	mass density [kg/m3]	viscosity [mPa·s]
293.15 K	1205.89 ± 3	136.3 ± 18
294.15 K	1205.17 ± 3	–
295.15 K	1204.46 ± 3	–
296.15 K	1203.73 ± 3	–
297.15 K	1203 ± 3	–
298.15 K	1202.3 ± 3	103.8 ± 10
299.15 K	1201.57 ± 2.9	–
300.15 K	1200.85 ± 2.9	–
301.15 K	1200.13 ± 2.9	–
302.15 K	1199.43 ± 2.9	–
303.15 K	1198.71 ± 2.9	80.6 ± 5.2
304.15 K	1198 ± 2.9	–
305.15 K	1197.28 ± 2.9	–
306.15 K	1196.58 ± 2.9	–
307.15 K	1195.85 ± 2.9	–
308.15 K	1195.16 ± 2.9	64 ± 2.3
309.15 K	1194.44 ± 2.9	–
310.15 K	1193.73 ± 2.9	–
311.15 K	1193.02 ± 2.9	–
312.15 K	1192.32 ± 2.9	–
313.15 K	1191.63 ± 2.9	51.5 ± 1.1
314.15 K	1190.9 ± 2.9	–
315.15 K	1190.2 ± 2.9	–
316.15 K	1189.49 ± 2.8	–
317.15 K	1188.78 ± 2.8	–
318.15 K	1188.08 ± 2.8	42.1 ± 1.6
319.15 K	1187.36 ± 2.8	–
320.15 K	1186.66 ± 2.8	–
321.15 K	1185.96 ± 2.8	–
322.15 K	1185.27 ± 2.8	–
323.15 K	1184.55 ± 2.8	34.9 ± 1.4

CCCCCCn1cc[n+](C)c1.F[B-](F)(F)F [1-hexyl-3-methylimidazolium tetrafluoroborate]
Details	mass density [kg/m3]	viscosity [mPa·s]
288.15 K	1151.49 ± 2.5	315.7 ± 78
289.15 K	1150.78 ± 2.5	–
290.15 K	1150.08 ± 2.5	–
291.15 K	1149.37 ± 2.5	–
292.15 K	1148.66 ± 2.5	–
293.15 K	1147.96 ± 2.5	232.8 ± 48
294.15 K	1147.25 ± 2.5	–
295.15 K	1146.56 ± 2.5	–
296.15 K	1145.85 ± 2.5	–
297.15 K	1145.15 ± 2.5	–
298.15 K	1144.45 ± 2.5	174.1 ± 29
299.15 K	1143.75 ± 2.5	–
300.15 K	1143.04 ± 2.5	–
301.15 K	1142.34 ± 2.5	–
302.15 K	1141.65 ± 2.5	–
303.15 K	1140.96 ± 2.4	132.1 ± 17
304.15 K	1140.25 ± 2.4	–
305.15 K	1139.56 ± 2.4	–
306.15 K	1138.87 ± 2.4	–
307.15 K	1138.16 ± 2.4	–
308.15 K	1137.48 ± 2.4	103 ± 10
309.15 K	1136.77 ± 2.4	–
310.15 K	1136.08 ± 2.4	–
311.15 K	1135.39 ± 2.4	–
312.15 K	1134.7 ± 2.4	–
313.15 K	1134.03 ± 2.4	81.7 ± 5.5
314.15 K	1133.33 ± 2.4	–
315.15 K	1132.64 ± 2.4	–
316.15 K	1131.95 ± 2.4	–
317.15 K	1131.28 ± 2.4	–
318.15 K	1130.59 ± 2.4	65.9 ± 2.5
319.15 K	1129.9 ± 2.4	–
320.15 K	1129.22 ± 2.4	–
321.15 K	1128.53 ± 2.3	–
322.15 K	1127.87 ± 2.3	–
323.15 K	1127.17 ± 2.3	53.9 ± 1.2

CCCCCCCC[n+]1ccn(C)c1.F[B-](F)(F)F [1-methyl-3-octylimidazolium tetrafluoroborate]
Details	mass density [kg/m3]	viscosity [mPa·s]
288.15 K	1110.37 ± 2.2	412.3 ± 120
289.15 K	1109.66 ± 2.2	–
290.15 K	1108.98 ± 2.2	–
291.15 K	1108.29 ± 2.2	–
292.15 K	1107.6 ± 2.2	–
293.15 K	1106.92 ± 2.2	300.9 ± 73
294.15 K	1106.24 ± 2.2	–
295.15 K	1105.55 ± 2.2	–
296.15 K	1104.87 ± 2.1	–
297.15 K	1104.18 ± 2.1	–
298.15 K	1103.51 ± 2.1	222.8 ± 45
299.15 K	1102.82 ± 2.1	–
300.15 K	1102.13 ± 2.1	–
301.15 K	1101.45 ± 2.1	–
302.15 K	1100.77 ± 2.1	–
303.15 K	1100.09 ± 2.1	168.9 ± 28
304.15 K	1099.41 ± 2.1	–
305.15 K	1098.73 ± 2.1	–
306.15 K	1098.05 ± 2.1	–
307.15 K	1097.35 ± 2.1	–
308.15 K	1096.69 ± 2.1	131.2 ± 17
309.15 K	1096 ± 2.1	–
310.15 K	1095.32 ± 2.1	–
311.15 K	1094.64 ± 2.1	–
312.15 K	1093.96 ± 2.1	–
313.15 K	1093.29 ± 2.1	102.9 ± 10
314.15 K	1092.6 ± 2	–
315.15 K	1091.92 ± 2	–
316.15 K	1091.25 ± 2	–
317.15 K	1090.57 ± 2	–
318.15 K	1089.89 ± 2	81.8 ± 5.5
319.15 K	1089.23 ± 2	–
320.15 K	1088.54 ± 2	–
321.15 K	1087.88 ± 2	–
322.15 K	1087.21 ± 2	–
323.15 K	1086.51 ± 2	66.7 ± 2.7
